In patent US20210127671A1, “HYPERSENSITIVE RESPONSE ELICITOR PEPTIDES AND USE THEREOF” (priority 2015, published 2021):
Like-named read-outs stand apart in the source and are kept apart here. Peptide text beside a SMILES is read from it.

Columns and labels:
[1] = 0.2% AI in deionized water, 48 hours at room temperature
[2] = Stability against chemical degradation in water or pH buffers at 50° C. (HPLC); settings: for precipitation during stability test: 0.2% AI, 0.25% Proxel GXL, 50 mM buffers, 50° C.
Procedure: Briefly, the stability and resistance to chemical degradation of peptides can be assessed as follows using peptide samples having an initial purity of at least about 80%, at least about 82%, at least about 84%, at least about 86%, at least about 88%, at least about 90%, at least about 92%, at least about 94%, at least about 96%, or at least about 98%. For water stability, the peptide is dissolved directly in de-ionized water. For chemical degradation tests, the peptide is dissolved in an aqueous solution containing 50 mM pH buffer and 0.25% Proxel GXL. Exemplary pH buffers include, without limitation: (i) Citrate pH 5.6; (ii) MES pH 6.2; (iii) MOPS pH 6.5; (iv) imidazole pH 7.0; (v) Citrate pH 7.2; (vi) EDDS, pH 7.3; (vii) EDTA pH 8.0; (viii) sodium phosphate pH 8.0; or (ix) TES pH 8.0. Peptides are first dissolved in the aqueous solution at a concentration of 0.5 mg/ml. […] An initial sample of the peptide is removed, diluted 10× with water, and analyzed by reverse-phase HPLC. Briefly, 20 μl of the sample is injected into the solvent flow of an HPLC instrument and analyzed on a C18 HPLC column (YMC ProPack C18, YMC, Japan, or C18 Stablebond, Agilent Technologies, USA) using either a triethylamine phosphate in water/acetonitrile gradient or a 0.1% TFA in water/0.1% TFA in acetonitrile gradient to separate different peptide species. Eluting peptides are monitored by UV absorbance at 218 nm and quantified based on the area under the peak. The area under the peak for the initial peptide sample is treated as the standard for relative quantification in subsequent runs. At regular intervals (e.g., 1, 3, 7, 10, 14, 17, and 21 days), each peptide sample is surveyed and analyzed by HPLC as described above.
Stability against chemical degradation was assessed in various pH buffers by creating 0.2% AI solutions of pure, chemically synthesized peptide in deionized water, 0.25% weight to volume of Proxel® GXL (biocide), and 50 millimolar (mM) of eight buffers (separately) as follows: MES pH 5.6, MOPS pH 6.5, Citrate pH 7.2, EDDS pH 7.3, EDTA pH 8, Phosphate pH 8, Imidazole pH 8, and TES pH 8.

[3] = pH 8
[4] = 50° C., 50 mM TES, pH 8.0 and 30% isopropanol
[5] = not given; remark: listed apart in the source
Soy = assay: Growth test, foliar spray, soy; assay type: in vivo
Procedure: For growth tests, corn and soy seeds were planted in flats with 2 seeds per cell within the flat at a greenhouse facility. The seeds were allowed to germinate and the smaller plant is culled, leaving one plant per cell. Once the first true leaves are fully expanded and the second leaves are beginning to expand, the plants were initially measured for height. This was performed by stretching the highest leaf upward and measuring the distance to the soil. Peptides were dissolved in water at the indicated concentrations (below). The plants were then treated with a foliar spray using widely available spray bottles until liquid was dripping from the leaves. 4 flats of 14 plants each were treated per condition (peptide or control). Corn and soy were treated as indicated in Table 13 and compared with matched water-treated control plants. The plants were allowed to grow for 14 days. The height of the plants was again measured and compared to the original height to quantify growth. In some cases, the plants were allowed to grow without watering for 2-4 days until the onset of wilting and drought stress. At this time, the above-ground portions of the plants were harvested and weighed to determine the fresh mass. […] Growth, dry biomass, and fresh mass are calculated as the % increase over the water-treated control.

Molecule: CC[C@H](C)[C@H](NC(=O)CNC(=O)[C@H](CCC(N)=O)NC(=O)[C@@H](N)CC(N)=O)C(=O)N[C@@H](CO)C(=O)N[C@@H](CCC(=O)O)C(=O)N[C@@H](CCCCN)C(=O)N[C@@H](CCC(N)=O)C(=O)N[C@@H](CC(C)C)C(=O)N[C@@H](CC(=O)O)C(=O)N[C@@H](CCC(N)=O)C(=O)N[C@@H](CC(C)C)C(=O)N[C@@H](CC(C)C)C(=O)N[C@H](C(=O)N[C@@H](CCC(N)=O)C(=O)N[C@@H](CC(C)C)C(=O)N[C@H](C(=O)N[C@@H](CCSC)C(=O)N[C@@H](C)C(=O)N[C@@H](CC(C)C)C(=O)N[C@@H](CC(C)C)C(=O)N[C@@H](CCC(N)=O)C(=O)N[C@@H](CCC(N)=O)C(=O)O)[C@@H](C)CC)[C@@H](C)O [Peptide P1] (H-NQGISEKQLDQLLTQLIMALLQQ-OH; N-terminus and C-terminus assumed)
- solubility [1]: largely insoluble in water
- solubility: < 1000 µg/mL
- % of the material remaining after 7 days ([2]; 50 mM EDDS, pH 7.3): 10%
- better stability than the mutants after 14 days ([2]; 50 mM MES pH 6.0, 50° C.): 10-30%
- % degraded after 1 week of incubation ([2]; 50 mM TES, pH 8.0, 80° C. as printed): more than 90%
- precipitation during stability test [2]: Precipitation of P1 was observed after several days
- stability (in words) ([2]; dissolved in water, FIG. 1): modestly stable
- solubility behaviour ([2]; lower pH: deionized water, 50 mM citrate pH 5.6, 50 mM MES pH 6.0): solubility problems
- solubility (in words) ([2]; phosphate, pH 8.0): some cloudiness in solution
- stability (in words) ([2]; phosphate, pH 8.0): appears to outperform the stability of the mutants

Molecule: CC[C@H](C)[C@H](NC(=O)CNC(=O)[C@H](CCC(N)=O)NC(=O)[C@@H](N)CC(N)=O)C(=O)N[C@@H](CO)C(=O)N[C@@H](CCC(=O)O)C(=O)N[C@@H](CCCCN)C(=O)N[C@@H](CCC(N)=O)C(=O)N[C@@H](CC(C)C)C(=O)N[C@@H](CC(=O)O)C(=O)N[C@@H](CCC(N)=O)C(=O)N[C@@H](CC(C)C)C(=O)N[C@@H](CC(C)C)C(=O)N[C@H](C(=O)N[C@@H](CCC(N)=O)C(=O)N[C@@H](CC(C)C)C(=O)N[C@H](C(=O)N[C@@H](CCCCN)C(=O)N[C@@H](C)C(=O)N[C@@H](CC(C)C)C(=O)N[C@@H](CC(C)C)C(=O)N[C@@H](CCC(N)=O)C(=O)N[C@@H](CCC(N)=O)C(=O)O)[C@@H](C)CC)[C@@H](C)O [Peptide P1-18K] (H-NQGISEKQLDQLLTQLIKALLQQ-OH; N-terminus and C-terminus assumed)
- solubility: ≥ 20000 µg/mL
- % remaining after 14 days incubation ([2]; 50 mM TES, pH 8.0, 50° C.): 58%

Molecule: CC[C@H](C)[C@H](NC(=O)[C@H](CC(N)=O)NC(=O)[C@H](CO)NC(=O)[C@H](CCC(N)=O)NC(=O)[C@H](CO)NC(=O)[C@H](CC(=O)O)NC(=O)[C@H](CC(N)=O)NC(=O)[C@@H]1CCCN1C(=O)[C@H](CCCCN)NC(=O)[C@H](CO)NC(=O)[C@H](C)NC(=O)[C@H](CC(=O)O)NC(=O)[C@H](CCC(N)=O)NC(=O)[C@@H]1CCCN1C(=O)[C@H](CC(N)=O)NC(=O)[C@H](CCC(N)=O)NC(=O)[C@@H](NC(=O)[C@@H](NC(=O)[C@H](CO)NC(=O)[C@H](CC(=O)O)NC(=O)[C@@H]1CCCN1C(=O)[C@@H](NC(=O)CNC(=O)[C@H](Cc1ccccc1)NC(=O)[C@@H](N)CC(N)=O)[C@@H](C)O)[C@@H](C)O)C(C)C)C(=O)N[C@@H](C)C(=O)N[C@@H](CCCCN)C(=O)N[C@@H](CC(C)C)C(=O)N[C@H](C(=O)N[C@@H](CO)C(=O)N[C@@H](C)C(=O)N[C@@H](CC(C)C)C(=O)N[C@H](C(=O)N[C@@H](CCSC)C(=O)N[C@@H](CO)C(=O)N[C@@H](CC(C)C)C(=O)N[C@@H](CC(C)C)C(=O)N[C@@H](CCC(N)=O)C(=O)N[C@@H](CCSC)C(=O)O)[C@@H](C)CC)[C@@H](C)CC [Peptide P15a] (H-NFGTPDSTVQNPQDASKPNDSQSNIAKLISALIMSLLQM-OH; N-terminus and C-terminus assumed)
- solubility [3]: > 10000 µg/mL

Molecule: CSCC[C@H](NC(=O)[C@H](CC(C)C)NC(=O)[C@H](C)NC(=O)[C@H](CCC(N)=O)NC(=O)[C@H](CCSC)NC(=O)[C@@H]1CCCN1C(=O)[C@H](CC(=O)O)NC(=O)[C@@H](N)CCC(N)=O)C(=O)N[C@@H](CCC(N)=O)C(=O)N[C@@H](CC(C)C)C(=O)N[C@@H](CC(C)C)C(=O)N[C@@H](CCC(=O)O)C(=O)N[C@@H](CC(=O)O)C(=O)N[C@@H](CC(C)C)C(=O)N[C@H](C(=O)N[C@@H](CCCCN)C(=O)N[C@@H](CC(C)C)C(=O)N[C@@H](CC(C)C)C(=O)N[C@@H](CCCCN)C(=O)O)C(C)C [Peptide P14d] (H-QDPMQALMQLLEDLVKLLK-OH; N-terminus and C-terminus assumed)
- chemical stability for >50 days [4]: around 50%

Molecule: CC[C@H](C)[C@H](NC(=O)[C@H](CC(N)=O)NC(=O)[C@H](CO)NC(=O)[C@H](CCC(N)=O)NC(=O)[C@H](CO)NC(=O)[C@H](CC(=O)O)NC(=O)[C@H](CC(N)=O)NC(=O)[C@@H]1CCCN1C(=O)[C@@H](N)CCCCN)C(=O)N[C@@H](C)C(=O)N[C@@H](CCCCN)C(=O)N[C@@H](CC(C)C)C(=O)N[C@H](C(=O)N[C@@H](CO)C(=O)N[C@@H](C)C(=O)N[C@@H](CC(C)C)C(=O)N[C@H](C(=O)N[C@@H](CCSC)C(=O)N[C@@H](CO)C(=O)N[C@@H](CC(C)C)C(=O)N[C@@H](CC(C)C)C(=O)N[C@@H](CCC(N)=O)C(=O)O)[C@@H](C)CC)[C@@H](C)CC [Peptide P15b] (H-KPNDSQSNIAKLISALIMSLLQ-OH; N-terminus and C-terminus assumed)
- solubility at 0.2% w/v ([5]; 50 mM MES pH 6.0, and MOPS pH 6.5): at least partially soluble
- solubility at 0.2% w/v ([5]; 50 mM of each of citrate pH ~5.2, citrate pH 7.0, phosphate pH 7.0, TES pH 8.0, EDTA pH 8.0, EDDS pH 7.0): insoluble
- solubility at 0.2% w/v ([5]; water): partially soluble

Molecule: SEGISEKQLDQLLSQLIEALLQP [Peptide P4-14S-18E]
- Growth (% difference) (Soy; Rate 2.0, 14 days, % increase over water-treated control): 9.0 % difference
- Dry biomass (% difference) (Soy; Rate 2.0, % increase over water-treated control): 0.8 % difference

Molecule: CC[C@H](C)[C@H](NC(=O)CNC(=O)[C@H](CCC(N)=O)NC(=O)[C@@H](N)CO)C(=O)N[C@@H](CO)C(=O)N[C@@H](CCC(=O)O)C(=O)N[C@@H](CCCCN)C(=O)N[C@@H](CCC(N)=O)C(=O)N[C@@H](CC(C)C)C(=O)N[C@@H](CC(=O)O)C(=O)N[C@@H](CCC(N)=O)C(=O)N[C@@H](CC(C)C)C(=O)N[C@@H](CC(C)C)C(=O)N[C@@H](CS)C(=O)N[C@@H](CCC(N)=O)C(=O)N[C@@H](CC(C)C)C(=O)N[C@H](C(=O)N[C@@H](CCC(N)=O)C(=O)N[C@@H](C)C(=O)N[C@@H](CC(C)C)C(=O)N[C@@H](CC(C)C)C(=O)N[C@@H](CCC(N)=O)C(=O)N1CCC[C@H]1C(=O)O)[C@@H](C)CC [Peptide P4] (H-SQGISEKQLDQLLCQLIQALLQP-OH; N-terminus and C-terminus assumed)
- solubility [1]: completely soluble
- solubility: ≥ 100000 µg/mL
- precipitation during stability test [2]: remained in solution
- solution stability (in words) ([2]; aqueous solution): very poor stability

Molecule: CC[C@H](C)[C@H](NC(=O)[C@H](CCC(=O)O)NC(=O)[C@H](CCC(=O)O)NC(=O)[C@H](CCC(=O)O)NC(=O)[C@H](CCC(=O)O)NC(=O)[C@H](CCC(=O)O)NC(=O)[C@@H](N)CO)C(=O)N[C@@H](C)C(=O)N[C@@H](CCCCN)C(=O)N[C@@H](CC(C)C)C(=O)N[C@H](C(=O)N[C@@H](CO)C(=O)N[C@@H](C)C(=O)N[C@@H](CC(C)C)C(=O)N[C@H](C(=O)N[C@@H](CCC(=O)O)C(=O)N[C@@H](CO)C(=O)N[C@@H](CC(C)C)C(=O)N[C@@H](CC(C)C)C(=O)N[C@@H](CCC(=O)O)C(=O)O)[C@@H](C)CC)[C@@H](C)CC [Peptide P15-59] (H-SEEEEEIAKLISALIESLLE-OH; N-terminus and C-terminus assumed)
- solubility [3]: > 10000 µg/mL
